Test results reported in the NIST ThermoML archive (doi:10.1016/j.fluid.2013.06.041).
Numbers after ± are expanded uncertainties.

How the values were obtained:
[1] = xn = mol fraction of the nth substance listed; conditions: 101 kPa, Liquid, Small sample (50 mg) DSC
[2] = 101.33 kPa, Liquid, Vibrating tube method
[3] = molar heat capacity at constant pressure; conditions: 101.33 kPa, Liquid, Small sample (50 mg) DSC

OCCO [1,2-ethanediol] + O
excess molar heat capacity [J/K/mol], [1]
Conditions | 283.15 K | 293.15 K | 298.15 K | 303.15 K | 313.15 K
x1 = 0.00991 | 0.43 ± 0.43 | 0.3 ± 0.43 | 0.26 ± 0.43 | 0.26 ± 0.43 | 0.37 ± 0.43
x1 = 0.02619 | 0.87 ± 0.43 | 0.79 ± 0.43 | 0.76 ± 0.43 | 0.75 ± 0.43 | 0.74 ± 0.43
x1 = 0.04637 | 1.03 ± 0.43 | 1.25 ± 0.43 | 1.33 ± 0.43 | 1.39 ± 0.43 | 1.5 ± 0.43
x1 = 0.07516 | 1.32 ± 0.43 | 1.72 ± 0.43 | 1.85 ± 0.43 | 1.96 ± 0.43 | 2.17 ± 0.44
x1 = 0.09514 | – | – | 1.99 ± 0.43 | 2.2 ± 0.44 | 2.5 ± 0.44
x1 = 0.1016 | 1.26 ± 0.43 | – | – | – | –
x1 = 0.1245 | 1.16 ± 0.43 | 1.91 ± 0.43 | 2.17 ± 0.44 | 2.38 ± 0.44 | 2.76 ± 0.44
x1 = 0.1491 | 0.94 ± 0.43 | 1.76 ± 0.43 | 2.08 ± 0.43 | 2.35 ± 0.44 | 2.82 ± 0.44
x1 = 0.1731 | 0.76 ± 0.43 | 1.68 ± 0.43 | 2.01 ± 0.43 | 2.29 ± 0.44 | –
x1 = 0.2203 | – | – | – | – | 2.62 ± 0.44
x1 = 0.2903 | – | 0.61 ± 0.43 | 1.14 ± 0.43 | 1.6 ± 0.43 | 2.42 ± 0.44
x1 = 0.4076 | – | 0.05 ± 0.42 | 0.54 ± 0.43 | 0.98 ± 0.43 | 1.82 ± 0.43
x1 = 0.4641 | – | – | 0.35 ± 0.43 | 0.78 ± 0.43 | 1.58 ± 0.43
x1 = 0.6066 | – | – | 0.02 | 0.035 | 0.96 ± 0.43
x1 = 0.6959 | – | – | – | 0.15 ± 0.43 | 0.63 ± 0.43
x1 = 0.804 | – | – | – | – | 0.18 ± 0.43

CCCCC(O)CO (configuration not stated) [1,2-hexanediol] + O
excess molar heat capacity [J/K/mol], [1]
Conditions | 283.15 K | 293.15 K | 298.15 K | 303.15 K | 313.15 K
x1 = 0.04991 | – | 0.35 ± 0.43 | – | 1.74 ± 0.43 | 2.85 ± 0.44
x1 = 0.09952 | – | – | 0.87 ± 0.43 | 1.95 ± 0.43 | 3.92 ± 0.45
x1 = 0.1989 | – | 0.68 ± 0.43 | 1.97 ± 0.43 | 3.16 ± 0.44 | 5.28 ± 0.45
x1 = 0.2988 | – | 1.31 ± 0.43 | 2.52 ± 0.44 | 3.76 ± 0.44 | 5.95 ± 0.46
x1 = 0.4015 | – | 0.89 ± 0.43 | 2.19 ± 0.44 | 3.35 ± 0.44 | 5.35 ± 0.46
x1 = 0.4841 | – | 1.13 ± 0.43 | 2.22 ± 0.44 | 3.15 ± 0.44 | 4.97 ± 0.45
x1 = 0.5535 | – | 1.45 ± 0.43 | 2.33 ± 0.44 | 3.16 ± 0.44 | –
x1 = 0.6972 | – | 0.9 ± 0.43 | 1.63 ± 0.43 | 2.27 ± 0.44 | 3.48 ± 0.44
x1 = 0.7927 | – | 0.92 ± 0.43 | 1.26 ± 0.43 | 1.52 ± 0.43 | 2.27 ± 0.44
x1 = 0.8822 | – | 0.82 ± 0.43 | 0.94 ± 0.43 | 0.89 ± 0.43 | 1.65 ± 0.43
x1 = 0.9437 | 0.04 | 0.68 ± 0.43 | 0.47 ± 0.43 | 0.22 ± 0.43 | 0.62 ± 0.43

OCCO [1,2-ethanediol]
Conditions | mass density, 283.15 K [kg/m3] | mass density, 293.15 K [kg/m3] | mass density, 303.15 K [kg/m3] | mass density, 313.15 K [kg/m3] | molar heat capacity at constant pressure, 283.15 K [J/K/mol] | molar heat capacity at constant pressure, 293.15 K [J/K/mol] | molar heat capacity at constant pressure, 298.15 K [J/K/mol] | molar heat capacity at constant pressure, 303.15 K [J/K/mol] | molar heat capacity at constant pressure, 313.15 K [J/K/mol]
[2] | 1120.39 ± 0.22 | 1113.34 ± 0.22 | 1106.23 ± 0.21 | 1099.07 ± 0.21 | – | – | – | – | –
[3] | – | – | – | – | 145.38 ± 6.2 | 148.53 ± 6.3 | 150.22 ± 6.4 | 151.96 ± 6.4 | 155.49 ± 6.6

CCCCC(O)CO (configuration not stated) [1,2-hexanediol]
Conditions | mass density, 283.15 K [kg/m3] | mass density, 293.15 K [kg/m3] | mass density, 298.15 K [kg/m3] | mass density, 303.15 K [kg/m3] | mass density, 313.15 K [kg/m3] | molar heat capacity at constant pressure, 283.15 K [J/K/mol] | molar heat capacity at constant pressure, 293.15 K [J/K/mol] | molar heat capacity at constant pressure, 298.15 K [J/K/mol] | molar heat capacity at constant pressure, 303.15 K [J/K/mol] | molar heat capacity at constant pressure, 313.15 K [J/K/mol]
[2] | 958.85 ± 0.79 | 951.73 ± 0.78 | 948.1 ± 0.78 | 944.44 ± 0.77 | 937.06 ± 0.76 | – | – | – | – | –
[3] | – | – | – | – | – | 277.11 ± 12 | 287.76 ± 12 | 293.1 ± 12 | 298.44 ± 13 | 309.15 ± 13

OCCCO [propan-1,3-diol]
Conditions | mass density, 283.15 K [kg/m3] | mass density, 293.15 K [kg/m3] | mass density, 298.15 K [kg/m3] | mass density, 303.15 K [kg/m3] | mass density, 313.15 K [kg/m3] | molar heat capacity at constant pressure, 283.15 K [J/K/mol] | molar heat capacity at constant pressure, 293.15 K [J/K/mol] | molar heat capacity at constant pressure, 298.15 K [J/K/mol] | molar heat capacity at constant pressure, 303.15 K [J/K/mol] | molar heat capacity at constant pressure, 313.15 K [J/K/mol]
[2] | 1059.14 ± 0.96 | 1052.85 ± 0.95 | 1049.68 ± 0.94 | 1046.51 ± 0.93 | 1040.12 ± 0.92 | – | – | – | – | –
[3] | – | – | – | – | – | 169.44 ± 7.2 | 174.37 ± 7.4 | 176.91 ± 7.5 | 179.52 ± 7.6 | 185.09 ± 7.9

CC(O)CO (configuration not stated) [1,2-propanediol]
Conditions | mass density, 283.15 K [kg/m3] | mass density, 293.15 K [kg/m3] | mass density, 298.15 K [kg/m3] | mass density, 303.15 K [kg/m3] | mass density, 313.15 K [kg/m3] | molar heat capacity at constant pressure, 283.15 K [J/K/mol] | molar heat capacity at constant pressure, 293.15 K [J/K/mol] | molar heat capacity at constant pressure, 298.15 K [J/K/mol] | molar heat capacity at constant pressure, 303.15 K [J/K/mol] | molar heat capacity at constant pressure, 313.15 K [J/K/mol]
[2] | 1043.89 ± 0.22 | 1036.58 ± 0.22 | 1032.86 ± 0.22 | 1029.1 ± 0.22 | 1021.48 ± 0.22 | – | – | – | – | –
[3] | – | – | – | – | – | 183.26 ± 7.8 | 188.62 ± 8 | 191.29 ± 8.1 | 193.95 ± 8.2 | 199.25 ± 8.5

OCCCCO [1,4-butanediol]
Conditions | mass density, 283.15 K [kg/m3] | mass density, 293.15 K [kg/m3] | mass density, 298.15 K [kg/m3] | mass density, 303.15 K [kg/m3] | mass density, 313.15 K [kg/m3] | molar heat capacity at constant pressure, 283.15 K [J/K/mol] | molar heat capacity at constant pressure, 293.15 K [J/K/mol] | molar heat capacity at constant pressure, 298.15 K [J/K/mol] | molar heat capacity at constant pressure, 303.15 K [J/K/mol] | molar heat capacity at constant pressure, 313.15 K [J/K/mol]
[2] | 1022.21 ± 0.3 | 1016.11 ± 0.3 | 1013.06 ± 0.3 | 1009.99 ± 0.29 | 1003.85 ± 0.29 | – | – | – | – | –
[3] | – | – | – | – | – | 195.51 ± 8.3 | 200.85 ± 8.5 | 203.73 ± 8.6 | 206.71 ± 8.8 | 212.96 ± 9
